# Measured values reported in patent publication US11560385B2, “Proteasome activity enhancing compounds” (Proteostasis Therapeutics, Inc., priority 2018, dated 2023).
# pIC50: −log10 of the molar value.
# Target: USP14 (Homo sapiens (Human), UniProt P54578)
# Assay: Usp14 inhibition assay (Example 57B, B-series compounds)
# Format: biochemical
# Settings: IC50 class; average value from a minimum of two experimental determinations
# Excerpt: Example 57B: Usp14 Inhibition Assay
# The IC50 values in the Table below represent the average value from a minimum of two experimental determinations.
# Chain of USP14 (P54578 whole entry, looked up): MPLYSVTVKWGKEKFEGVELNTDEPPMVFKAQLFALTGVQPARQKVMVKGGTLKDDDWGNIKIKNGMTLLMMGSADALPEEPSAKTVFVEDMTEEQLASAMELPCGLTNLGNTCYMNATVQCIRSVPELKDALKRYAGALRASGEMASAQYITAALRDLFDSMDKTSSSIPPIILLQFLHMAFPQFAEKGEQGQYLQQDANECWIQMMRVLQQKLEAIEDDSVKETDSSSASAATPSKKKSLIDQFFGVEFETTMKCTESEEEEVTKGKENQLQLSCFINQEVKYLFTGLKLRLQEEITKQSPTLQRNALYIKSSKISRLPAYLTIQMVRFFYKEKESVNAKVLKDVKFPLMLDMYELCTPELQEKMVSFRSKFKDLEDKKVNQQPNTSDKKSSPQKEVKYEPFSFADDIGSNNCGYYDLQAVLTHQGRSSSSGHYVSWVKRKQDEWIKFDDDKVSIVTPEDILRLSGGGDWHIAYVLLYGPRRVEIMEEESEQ
row,Compound,pIC50
1,"Cc1c(C(=O)CN2[C@@H]3CC[C@H]2[C@@H](O)C3)cc(C(C)C)n1-c1ccc(C#N)cc1 (racemic) [Example 112B, (±)-4-(3-(2-((1R,2R,4S)-2-Hydroxy-7-azabicyclo[2.2.1]heptan-7-yl)acetyl)-5-isopropyl-2-methyl-1H-pyrrol-1-yl)benzonitrile]",6.30 to 7.30
2,"Cc1c(C(=O)CN2C3CCC2[C@@H](O)C3)cc(C(C)(C)C)n1-c1ccc(C#N)cc1 (mixture of isomers) [Example 113B, (±)-4-(5-(tert-Butyl)-3-(2-((2R)-2-hydroxy-7-azabicyclo[2.2.1]heptan-7-yl)acetyl)-2-methyl-1H-pyrrol-1-yl)benzonitrile]",6.30 to 7.30
3,"CCC(C)c1cc(C(=O)CN2C3CCC2[C@@H](O)C3)c(C)n1-c1ccc(C#N)cc1 (mixture of isomers) [Example 114B, (±)-4-(5-(sec-Butyl)-3-(2-((1R,2R,4S)-2-hydroxy-7-azabicyclo[2.2.1]heptan-7-yl)acetyl)-2-methyl-1H-pyrrol-1-yl)benzonitrile]",6.30 to 7.30
4,"Cc1c(C(=O)CN2C3CCC2[C@@H](O)C3)cc(CC(F)(F)F)n1-c1ccc(C#N)cc1 (mixture of isomers) [Example 115B, (±)-4-(3-(2-((2R)-2-Hydroxy-7-azabicyclo[2.2.1]heptan-7-yl)acetyl)-2-methyl-5-(2,2,2-trifluoroethyl)-1H-pyrrol-1-yl)benzonitrile]",6.30 to 7.30
5,"Cc1c(F)c(C(=O)CN2C3CC4CC2CC(C3)O4)c(C)n1-c1ccc(C#N)c(F)c1 (racemic) [Example 116B, (±)-4-(3-(2-((1r,3r)-2-Oxa-6-azaadamantan-6-yl)acetyl)-4-fluoro-2,5-dimethyl-1H-pyrrol-1-yl)-2-fluorobenzonitrile]",6.30 to 7.30
6,"Cc1cc(C(=O)CN2C3CCC2[C@@H](O)C3)c(C)n1-c1ccc(Cl)c(F)c1 (mixture of isomers) [Example 117B, (±)-1-(1-(4-Chloro-3-fluorophenyl)-2,5-dimethyl-1H-pyrrol-3-yl)-2-((2R)-2-hydroxy-7-azabicyclo[2.2.1]heptan-7-yl)ethan-1-one]",6.30 to 7.30
7,"Cc1cc(C(=O)CN2C3CCC2[C@@H](O)C3)c(C)n1-c1cc(F)c(Cl)c(F)c1 (mixture of isomers) [Example 118B, (±)-1-(1-(4-Chloro-3,5-difluorophenyl)-2,5-dimethyl-1H-pyrrol-3-yl)-2-((2R)-2-hydroxy-7-azabicyclo[2.2.1]heptan-7-yl)ethan-1-one]",< 6.30
8,"Cc1c(C(=O)CN2C3CCC2[C@@H](O)C3)cc(Br)n1-c1ccc(C#N)cc1 (mixture of isomers) [Example 119B, (±)-4-(5-Bromo-3-(2-((2R)-2-hydroxy-7-azabicyclo[2.2.1]heptan-7-yl)acetyl)-2-methyl-1H-pyrrol-1-yl)benzonitrile]",6.30 to 7.30
9,"Cc1c(F)c(C(=O)CN2C3CCC2[C@@H](O)C3)c(C)n1-c1ccc(C#N)c(F)c1 (mixture of isomers) [Example 120B, (±)-2-Fluoro-4-(3-fluoro-4-(2-((2R)-2-hydroxy-7-azabicyclo[2.2.1]heptan-7-yl)acetyl)-2,5-dimethyl-1H-pyrrol-1-yl)benzonitrile]",> 7.30
10,"Cc1c(F)c(C(=O)CN2[C@@H]3CC[C@H]2[C@H](C)C3)c(C)n1-c1ccc(C#N)cc1 (racemic) [Example 121B, (±)-4-(3-Fluoro-2,5-dimethyl-4-(2-((1S,2R,4R)-2-methyl-7-azabicyclo[2.2.1]heptan-7-yl)acetyl)-1H-pyrrol-1-yl)benzonitrile]",6.30 to 7.30
11,"Cc1cc(C(=O)CN2[C@@H]3CC[C@H]2[C@H](C)C3)c(C)n1-c1ccc(C#N)cc1 (racemic) [Example 122B, (±)-4-(2,5-Dimethyl-3-(2-((1S,2R,4R)-2-methyl-7-azabicyclo[2.2.1]heptan-7-yl)acetyl)-1H-pyrrol-1-yl)benzonitrile]",6.30 to 7.30
12,"Cc1nc(Cc2c(Br)c(C(=O)CN3C4CCC3[C@@H](O)C4)c(C)n2-c2ccc(C#N)cc2)cs1 (mixture of isomers) [Example 129B, (±)-4-(3-Bromo-4-(2-((2R)-2-hydroxy-7-azabicyclo[2.2.1]heptan-7-yl)acetyl)-5-methyl-2-((2-methylthiazol-4-yl)methyl)-1H-pyrrol-1-yl)benzonitrile]",6.30 to 7.30
13,"Cc1cc(C(=O)CN2C3CCC2[C@@H](CO)C3)c(C)n1-c1ccc(C#N)cc1 (mixture of isomers) [Example 130B, (±)-4-(3-(2-((2R)-2-(Hydroxymethyl)-7-azabicyclo[2.2.1]heptan-7-yl)acetyl)-2,5-dimethyl-1H-pyrrol-1-yl)benzonitrile]",6.30 to 7.30
14,"Cc1c(C(=O)CN2[C@@H]3CC[C@H]2[C@@H](O)C3)cc(C2CC(F)(F)C2)n1-c1ccc(C#N)cc1 (racemic) [Example 131B, (±)-4-(5-(3,3-Difluorocyclobutyl)-3-(2-((1R,2R,4S)-2-hydroxy-7-azabicyclo[2.2.1]heptan-7-yl)acetyl)-2-methyl-1H-pyrrol-1-yl)benzonitrile]",6.30 to 7.30
15,"Cc1c(C(=O)CN2C3CCC2[C@@H](O)C3)cc(C2CC(F)C2)n1-c1ccc(C#N)cc1 (mixture of isomers) [Example 132B, (±)-4-(5-(3-Fluorocyclobutyl)-3-(2-((2R)-2-hydroxy-7-azabicyclo[2.2.1]heptan-7-yl)acetyl)-2-methyl-1H-pyrrol-1-yl)benzonitrile]",> 7.30
16,"Cc1c(C(=O)CN2[C@@H]3CC[C@H]2[C@@H](O)C3)cc(CC2CCC2)n1-c1ccc(C#N)cc1 (racemic) [Example 133B, (±)-4-(5-(Cyclobutylmethyl)-3-(2-((1R,2R,4S)-2-hydroxy-7-azabicyclo[2.2.1]heptan-7-yl)acetyl)-2-methyl-1H-pyrrol-1-yl)benzonitrile]",> 7.30
17,"Cc1c(C(=O)CN2[C@@H]3CC[C@H]2[C@@H](O)C3)cc(CC2CC(C)(C)C2)n1-c1ccc(C#N)cc1 (racemic) [Example 134B, (±)-4-(5-((3,3-Dimethylcyclobutyl)methyl)-3-(2-((1R,2R,4S)-2-hydroxy-7-azabicyclo[2.2.1]heptan-7-yl)acetyl)-2-methyl-1H-pyrrol-1-yl)benzonitrile]",> 7.30
18,"Cc1c(C(=O)CN2C3CCC2[C@@H](O)C3)cc(CC2CC(F)(F)C2)n1-c1ccc(C#N)cc1 (mixture of isomers) [Example 135B, (±)-4-(5-((3,3-Difluorocyclobutyl)methyl)-3-(2-((2R)-2-hydroxy-7-azabicyclo[2.2.1]heptan-7-yl)acetyl)-2-methyl-1H-pyrrol-1-yl)benzonitrile]",> 7.30
19,"Cc1c(C(=O)CN2[C@@H]3CC[C@H]2[C@@H](C)C3)cc(C#N)n1-c1ccc(C#N)cc1 (racemic) [Example 136B, (±)-1-(4-Cyanophenyl)-5-methyl-4-(2-((1R,2R,4S)-2-methyl-7-azabicyclo[2.2.1]heptan-7-yl)acetyl)-1H-pyrrole-2-carbonitrile]",> 7.30
20,"Cc1cc(C(=O)CN2[C@@H]3CC[C@H]2[C@H]2CCO[C@H]23)c(C)n1-c1ccc(C#N)cc1 (racemic) [Example 139B, (±)-4-(2,5-Dimethyl-3-(2-((3aR,4S,7R,7aR)-octahydro-4,7-epiminobenzofuran-8-yl)acetyl)-1H-pyrrol-1-yl)benzonitrile]",< 6.30
21,"Cc1cc(C(=O)CN2[C@@H]3CC[C@H]2[C@@H](C)[C@@H]3C)c(C)n1-c1ccc(C#N)cc1 (racemic) [Example 140B, (±)-4-(3-(2-((1R,2R,3R,4S)-2,3-Dimethyl-7-azabicyclo[2.2.1]heptan-7-yl)acetyl)-2,5-dimethyl-1H-pyrrol-1-yl)benzonitrile]",6.30 to 7.30
22,"Cc1cc(C(=O)CN2[C@@H]3C=C(C(F)(F)F)[C@H]2CC3)c(C)n1-c1ccc(C#N)cc1 (racemic) [Example 141B, (±)-4-(2,5-Dimethyl-3-(2-((1R,4S)-2-(trifluoromethyl)-7-azabicyclo[2.2.1]hept-2-en-7-yl)acetyl)-1H-pyrrol-1-yl)benzonitrile]",< 6.30
23,"Cc1c(C(=O)CN2C3CCC2C(O)C3)cc([C@@H]2C[C@H]2C)n1-c1ccc(C#N)cc1 (mixture of isomers) [Example 142B, (±)-4-(3-(2-((1S,2R,4R)-2-Hydroxy-7-azabicyclo[2.2.1]heptan-7-yl)acetyl)-2-methyl-5-(2-methylcyclopropyl)-1H-pyrrol-1-yl)benzonitrile]",6.30 to 7.30
24,"Cc1cc(C(=O)CN2C3CCC2(C(C)O)CC3)c(C)n1-c1ccc(C#N)cc1 (racemic) [Example 143B, (±)-4-(3-(2-(1-((R)-1-Hydroxyethyl)-7-azabicyclo[2.2.1]heptan-7-yl)acetyl)-2,5-dimethyl-1H-pyrrol-1-yl)benzonitrile]",6.30 to 7.30
25,"Cc1nc(-c2cc(C(=O)CN3[C@@H]4CC[C@H]3[C@@H](O)C4)c(C)n2-c2ccc(C#N)cc2)cs1 (racemic) [Example 144B, (±)-4-(3-(2-((1R,2R,4S)-2-Hydroxy-7-azabicyclo[2.2.1]heptan-7-yl)acetyl)-2-methyl-5-(2-methylthiazol-4-yl)-1H-pyrrol-1-yl)benzonitrile]",6.30 to 7.30
26,"Cc1c(C(=O)CN2[C@@H]3CC[C@H]2[C@@H](O)C3)cc(-c2csc(C(F)(F)F)n2)n1-c1ccc(C#N)cc1 (racemic) [Example 145B, (±)-4-(3-(2-((1R,2R,4S)-2-Hydroxy-7-azabicyclo[2.2.1]heptan-7-yl)acetyl)-2-methyl-5-(2-(trifluoromethyl)thiazol-4-yl)-1H-pyrrol-1-yl)benzonitrile]",< 6.30
27,"Cc1c(C(=O)CN2[C@@H]3CC[C@H]2[C@@H](O)C3)cc(-c2nccs2)n1-c1ccc(C#N)cc1 (racemic) [Example 146B, (±)-4-(3-(2-((1R,2R,4S)-2-Hydroxy-7-azabicyclo[2.2.1]heptan-7-yl)acetyl)-2-methyl-5-(thiazol-2-yl)-1H-pyrrol-1-yl)benzonitrile]",< 6.30
28,"Cc1ncc(-c2cc(C(=O)CN3[C@@H]4CC[C@H]3[C@@H](O)C4)c(C)n2-c2ccc(C#N)cc2)s1 (racemic) [Example 147B, (±)-4-(3-(2-((1R,2R,4S)-2-Hydroxy-7-azabicyclo[2.2.1]heptan-7-yl)acetyl)-2-methyl-5-(2-methylthiazol-5-yl)-1H-pyrrol-1-yl)benzonitrile]",6.30 to 7.30
29,"Cc1cc(C(=O)CN2C3CCC2[C@@H](CC(C)(C)O)C3)c(C)n1-c1ccc(C#N)cc1 (mixture of isomers) [Example 148B, (±)-4-(3-(2-((2S)-2-(2-Hydroxy-2-methylpropyl)-7-azabicyclo[2.2.1]heptan-7-yl)acetyl)-2,5-dimethyl-1H-pyrrol-1-yl)benzonitrile]",< 6.30
